The record followed here is PubChem BioAssay (NCI).

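96-well plates; 48 h exposure; 5 concentrations. Endpoints by linear interpolation between flanking doses. Not reached: highest tested concentration assigned. The concentration for 50% growth inhibition is given as GI50. TGI denotes the concentration required for complete inhibition of growth.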

Common to all, as to assay: NCI tumour cell line growth inhibition, 48 h
Experiment [1] concerns M14 melanoma.
The subject of experiment [2] is MALME-3M melanoma.
The test system of experiment [3] is NCI-H23 lung.
Experiment [4] relates to NCI-H522 lung.
In experiment [5] the test system is SN12C renal.
Experiment [6] has as its system U251 CNS.
For experiment [7], the system named is SR leukemia.
For experiment [8], the system named is MDA-MB-435.
Experiment [9] relates to T-47D breast.
The subject of experiment [10] is PC-3 prostate.

Regarding `COc1ccccc1C1C(C(=O)O)=C(CO)Oc2cc3c(cc21)OCO3` (stereo not drawn), the TGI in experiment [1], in [2], in [3], in experiment [4], in experiment [5] and in experiment [6] was greater than 100 µM in each case.

For `C[C@]12C=CC(=O)C=C1CC[C@H]1[C@@H]3C[C@@H](O)[C@](O)(C(=O)CO)[C@@]3(C)C[C@H](O)[C@@]12F`, the TGI in experiment [1], in experiment [2], in experiment [3], in [4], in [5] and in experiment [7] was greater than 100 µM in each case. This compound returned a TGI in experiment [6] greater than 100 µM.

In the case of `C=CCNC1=C2C[C@@H](C)C[C@@H](OC)[C@H](OC(=O)CCCCN)[C@H](C)/C=C(\C)[C@@H](OC(N)=O)[C@H](OC)/C=C\C=C(/C)C(=O)NC(=CC1=O)C2=O`, the TGI in experiment [1] worked out at 27 µM; in experiment [2], 19.6 µM; in experiment [8], 25.6 µM; in experiment [3], 30 µM; in [4], 28.8 µM; in experiment [5] it was 27.1 µM. Further, the values for the TGI in [7], in experiment [9] and in experiment [6] were greater than 100 µM, 29.9 µM and 22.8 µM, respectively.

On to `CC1CC=CC(O)C1` (stereo not drawn), for which the TGI in experiment [2], in experiment [3], in [4], in experiment [5] and in experiment [6] was greater than 100 µM throughout.

As to `CCC1(CC)SCc2nc3ccccc3n21`, the TGI in experiment [1] was 70.5 µM; in experiment [2], 94.8 µM; in experiment [8], 68 µM; in experiment [3], greater than 100 µM; in experiment [4], 94.4 µM; in experiment [10], 81.1 µM. For the same compound, the TGI in [5], in [9] and in experiment [6] was greater than 100 µM each time.

Regarding `CC[N+](CC)(CCNCC(N)=O)CC(N)=O`, the TGI in experiment [1], in experiment [2], in [8], in [3], in experiment [4] and in [10] was greater than 10 µM throughout. The TGI in experiment [5] and in [6] was greater than 10 µM in each case.

Turning to `O=[N+]([O-])c1ccc(/C=N/n2c(CO)nc3ccccc32)o1`, the TGI in [1] amounted to 16.7 µM; in experiment [2] it was 5.44 µM; in experiment [8], 13.9 µM; in [3] it was 20 µM; in [4] it was 4.43 µM; in [10], 26.1 µM. Besides, the results for the TGI in experiment [5], in [9] and in experiment [6] were 18.1 µM, 47.9 µM and 37.2 µM, respectively.

As for `O=[N+]([O-])c1ccc(C=C2C(Cl)=C(Cl)C(Cl)=C2Cl)cc1`, the GI50 in [2] is 2.59 µM; in experiment [3], 2.05 µM; in [10] it was 2.71 µM; in [5], 3.02 µM; in [7], 2.04 µM; in experiment [9], 2.16 µM. In experiment [6], the GI50 was 1.77 µM. The TGI was 9.26 µM in experiment [2]; 5.16 µM in experiment [3]; 8.35 µM in experiment [10]; greater than 100 µM in [5]; 7.75 µM in [7]; 5.46 µM in [9]. This compound also gave a TGI in experiment [6] of 3.46 µM.

With `NC(Cc1cccc([N+](=O)[O-])c1)C(=O)O` (stereo not drawn), the TGI in experiment [1], in experiment [2], in experiment [8], in experiment [3], in experiment [4] and in [10] was greater than 100 µM throughout. Moreover, the TGI in experiment [5], in experiment [9] and in [6] was greater than 100 µM each time.

Regarding `CCOC(=O)C1=CC(C)(C(=O)OCC)Nc2c(nc(OC)n(C)c2=O)N1` (stereo not drawn), the TGI in [1], in [2], in experiment [8], in experiment [3], in experiment [4] and in [10] was greater than 10 µM each time. For the same compound, the TGI in experiment [5], in [9] and in [6] was greater than 10 µM each time.

On to `Cc1cc2nc3c(C#N)c(-c4ccccc4)cc(Nc4ccc(Cl)cc4)n3c2cc1C`, for which the TGI in [1], in experiment [2], in experiment [8], in experiment [3], in experiment [4] and in experiment [10] was greater than 100 µM throughout. Moreover, the TGI in [5], in experiment [9] and in experiment [6] was greater than 100 µM in each case.

Consider `CC(C)C1OC23CCCCC2C(C#N)(C#N)C1(C#N)C(=N)O3` (stereo not drawn), for which the TGI in experiment [1] was 29.8 µM; in experiment [2], 39.6 µM; in [8], 80.6 µM; in experiment [3], 85.8 µM; in experiment [10] it was greater than 100 µM; in [5] it was 31.4 µM. The TGI in experiment [9] is 71.7 µM; in [6], 63.9 µM.

Consider `S=C(c1c[nH]c2ccccc12)N1CCOCC1`, for which the TGI in experiment [1], in experiment [2], in [8], in experiment [3], in experiment [10] and in experiment [5] was greater than 100 µM each time. For the same compound, the TGI in [7] and in experiment [6] was greater than 100 µM each time.

As to `COc1cc(Nc2cnc3cc(F)c(F)cc3n2)cc(OC)c1OC`, the TGI in [1], in experiment [2], in [8], in experiment [3], in [4] and in experiment [10] was greater than 100 µM each time. Besides, the TGI in experiment [5], in experiment [9] and in experiment [6] was greater than 100 µM throughout.

With `CNC(=S)N(C)C(=S)Nn1c(=O)c(C)nn(C)c1=S`, the TGI in experiment [1], in experiment [3], in experiment [4], in experiment [5], in experiment [7] and in [6] was greater than 100 µM throughout.

For `CN1C(=O)N/C(=C\c2ccc(S(=O)(=O)NN)cc2)C1=O`, the TGI in experiment [1], in experiment [2], in experiment [8], in experiment [3], in [10] and in [5] was greater than 100 µM each time. Besides, the TGI in experiment [9] and in [6] was greater than 100 µM throughout.
